The text below walks through data of patent US11986471B2, “Compounds and methods of use” (Tango Therapeutics, Inc., priority 2018, dated 2024).

In assay [1] the target is T1, PRMT5 (Homo sapiens, UniProt O14744).
T1 construct: purchased Viva (custom protein)
Put plainly: PRMT5 IC50 assay in the presence of SAM as cofactor. It counts as biochemical. In short, it runs like this: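 Enzyme: human PRMT5. Conditions: plus SAM, plus MTA, or cofactor-free. Output: IC50 (μM); Ki via IC50/1.5 (SAM) or IC50/13.5 (MTA).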

Assay [2] addresses T1, PRMT5. Put plainly: PRMT5 IC50 assay in the presence of MTA as cofactor. It counts as biochemical. The following applies: for IC50: PRMT5, MTA as cofactor. Put shortly: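 Potency against PRMT5 is compared across cofactor states, where IC50 equals Ki×1.5 with SAM present and Ki×13.5 with MTA present.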
In the next assay the test system is HAP1 MTAP-intact. Nature of the assay: SDMA in-cell western assay, HAP1 MTAP-intact cell line. The following applies: Homo sapiens. It counts as cell-based. In short, it runs like this:
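IC50 values come from SDMA in-cell western staining of HAP1 cells. The MTAP-intact line carries endogenous MTAP, while its MTAP-deleted counterpart lacks MTAP entirely. A selectivity ratio of at least 3 fold marks a compound as MTAP-selective.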

For assay [3], the target named is T1, PRMT5. Nature of the assay: PRMT5 IC50 assay with no cofactor. It counts as biochemical. Put shortly: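 Ki conversion: SAM arm, Ki=IC50/1.5; MTA arm, Ki=IC50/13.5. No-cofactor arm reported as IC50 only. Selectivity expressed as Ki(SAM)/Ki(MTA).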
The subject of a further assay is HAP1 MTAP-deleted. Put plainly: SDMA in-cell western assay, HAP1 MTAP-deleted cell line. The class given is cell-based. The following applies: for IC50: Homo sapiens, HAP1 MTAP-deleted cell line; for MTAP Intact/Deleted Ratio: IC50 ratio HAP1 MTAP-intact / HAP1 MTAP-deleted. Put shortly: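 Readout is cellular SDMA signal by in-cell western, with IC50 values derived from it. The cells are MTAP-null HAP1, matched to an isogenic MTAP-intact HAP1 line.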

Setting [4] is: ratio between Ki in the presence of SAM and Ki in the presence of MTA.
Setting [5] is: ratio between the Ki in the presence of SAM and the Ki in the presence of MTA.

T1 sequence (O14744 whole entry): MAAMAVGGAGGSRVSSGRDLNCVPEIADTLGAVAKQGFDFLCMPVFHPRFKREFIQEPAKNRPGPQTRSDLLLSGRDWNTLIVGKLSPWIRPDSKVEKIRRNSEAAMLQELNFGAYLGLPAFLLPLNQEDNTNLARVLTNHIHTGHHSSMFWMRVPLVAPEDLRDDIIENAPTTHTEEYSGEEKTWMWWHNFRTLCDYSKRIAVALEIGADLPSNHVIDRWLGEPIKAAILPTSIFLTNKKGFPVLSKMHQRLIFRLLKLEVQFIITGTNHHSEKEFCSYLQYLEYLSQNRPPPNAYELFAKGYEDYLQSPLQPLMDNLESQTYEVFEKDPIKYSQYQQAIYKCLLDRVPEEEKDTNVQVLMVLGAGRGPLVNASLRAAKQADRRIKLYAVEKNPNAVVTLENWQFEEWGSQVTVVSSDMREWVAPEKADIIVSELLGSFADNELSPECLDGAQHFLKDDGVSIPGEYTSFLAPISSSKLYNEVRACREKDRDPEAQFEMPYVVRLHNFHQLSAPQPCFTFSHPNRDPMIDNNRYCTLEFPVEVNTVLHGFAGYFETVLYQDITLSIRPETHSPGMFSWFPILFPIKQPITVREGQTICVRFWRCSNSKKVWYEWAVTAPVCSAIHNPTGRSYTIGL
T1 sequence (Q9BQA1 whole entry partner): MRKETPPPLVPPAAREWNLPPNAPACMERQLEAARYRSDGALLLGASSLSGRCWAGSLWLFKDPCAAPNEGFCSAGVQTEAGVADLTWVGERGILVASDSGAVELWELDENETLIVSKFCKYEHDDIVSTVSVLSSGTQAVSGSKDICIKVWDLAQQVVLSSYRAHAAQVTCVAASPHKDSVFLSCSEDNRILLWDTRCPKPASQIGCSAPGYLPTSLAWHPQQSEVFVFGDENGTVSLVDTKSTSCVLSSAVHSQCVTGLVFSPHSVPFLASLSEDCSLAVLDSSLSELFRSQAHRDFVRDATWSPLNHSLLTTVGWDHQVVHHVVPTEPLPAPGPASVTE

Consider `Cc1ncoc1COc1ccc2c(c1)CCN(C[C@@H](O)CNC(=O)c1ccc(OC3CCN(Cc4ccccc4)CC3)cc1)C2` [Compound 392], for which the IC50 is 0.05 to 0.5 µM at PRMT5 [1]; 0.05 to 0.5 µM on PRMT5 [2]; under 1 µM in the assay with HAP1 MTAP-intact; 0.5 to 5 µM at PRMT5 [3] (read-out: No Co-factor IC50); under 1 µM in the assay with HAP1 MTAP-deleted. For the same compound, the “SAM/MTA Ratio” value on PRMT5 [2] (setting [4]) was “A (a Ki ratio greater than or equal to 10 fold between the Ki in the presence of SAM and the Ki in the presence of MTA)”. Further, the “MTAP Intact/Deleted Ratio” value with HAP1 MTAP-deleted was “C* (an IC50 ratio of less than 3 fold between the IC50 in the HAP1 MTAP-intact cell line and the HAP1 MTAP-deleted cell line)”.

As for `Cc1ncoc1COc1ccc2c(c1)CCN(C[C@@H](O)CNC(=O)c1cc(CC(C)C)nc(NC3CCC3)c1)C2` [Compound 439, 2-(cyclobutylamino)-N-[(2S)-2-hydroxy-3-{6-[(4-methyl-1,3-oxazol-5-yl)methoxy]-1,2,3,4-tetrahydroisoquinolin-2-yl}propyl]-6-(2-methylpropyl)pyridine-4-carboxamide], the IC50 at PRMT5 [1] is 0.05 to 0.5 µM; at PRMT5 [2], 0.05 to 0.5 µM; in the assay with HAP1 MTAP-intact, 1 to 10 µM; at PRMT5 [3], at least 5 µM; in the assay on HAP1 MTAP-deleted, under 1 µM. Besides, the “SAM/MTA Ratio” value on PRMT5 [2] (setting [5]) was “A (a Ki ratio greater than or equal to 10 fold between the Ki in the presence of SAM and the Ki in the presence of MTA)”. For the same compound, in the assay on HAP1 MTAP-deleted, the “MTAP Intact/Deleted Ratio” value was “C* (an IC50 ratio of less than 3 fold between the IC50 in the HAP1 MTAP-intact cell line and the HAP1 MTAP-deleted cell line)”.

Consider `CC(=O)N1CCC(Nc2cc(C(=O)NC[C@H](O)CN3CCc4c(ccc(OCc5ocnc5C)c4C)C3)cc(N3CCN(C(C)=O)CC3)n2)CC1` [Compound 590, 2-(4-acetylpiperazin-1-yl)-6-[(1-acetylpiperidin-4-yl)amino]-N-[(2S)-2-hydroxy-3-{5-methyl-6-[(4-methyl-1,3-oxazol-5-yl)methoxy]-1,2,3,4-tetrahydroisoquinolin-2-yl}propyl]pyridine-4-carboxamide], for which the IC50 at PRMT5 [1] is 0.05 to 0.5 µM; at PRMT5 [2], 0.05 to 0.5 µM; with HAP1 MTAP-intact, at least 10 µM; against PRMT5 [3], 0.5 to 5 µM; with HAP1 MTAP-deleted, 1 to 10 µM. In addition, the “SAM/MTA Ratio” value at PRMT5 [2] (setting [5]) is “A (a Ki ratio greater than or equal to 10 fold between the Ki in the presence of SAM and the Ki in the presence of MTA)”. In addition, the “MTAP Intact/Deleted Ratio” value with HAP1 MTAP-deleted is “C* (an IC50 ratio of less than 3 fold between the IC50 in the HAP1 MTAP-intact cell line and the HAP1 MTAP-deleted cell line)”.

Turning to `O=C(NC[C@H](O)CN1CCc2c(ccc(OCc3cnco3)c2I)C1)c1ccnc(NC2CCC2)c1` [Compound 258, 2-(cyclobutylamino)-N-[(2S)-2-hydroxy-3-[5-iodo-6-(oxazol-5-ylmethoxy)-3,4-dihydro-1H-isoquinolin-2-yl]propyl]pyridine-4-carboxamide], the IC50 at PRMT5 [1] is 0.5 to 5 µM; on PRMT5 [2], 0.5 to 5 µM; in the assay with HAP1 MTAP-intact, at least 10 µM; at PRMT5 [3] (read-out: No Co-factor IC50), at least 5 µM; in the assay on HAP1 MTAP-deleted, at least 10 µM. In addition, the “SAM/MTA Ratio” value on PRMT5 [2] (setting [4]) is “A (a Ki ratio greater than or equal to 10 fold between the Ki in the presence of SAM and the Ki in the presence of MTA)”. Besides, the “MTAP Intact/Deleted Ratio” value in the assay with HAP1 MTAP-deleted is “C* (an IC50 ratio of less than 3 fold between the IC50 in the HAP1 MTAP-intact cell line and the HAP1 MTAP-deleted cell line)”.

For the compound `CC(C)(C)N1CCN(c2cc(C(=O)NC[C@H](O)CN3CCc4c(ccc(OCc5cnco5)c4Cl)C3)cc(NC3CCC3)n2)CC1` [Compound 319, (S)-2-(4-(tert-butyl)piperazin-1-yl)-N-(3-(5-chloro-6-(oxazol-5-ylmethoxy)-3N-dihydroisoquinolin-2(1H)-yl)-2-hydroxypropyl)-6-(cyclobutylamino)isonicotinamide], the IC50 on PRMT5 [1] was 0.05 to 0.5 µM; on PRMT5 [2] it was 0.05 to 0.5 µM; in the assay on HAP1 MTAP-intact, at least 10 µM; on PRMT5 [3] (read-out: No Co-factor IC50) it was 0.5 to 5 µM; with HAP1 MTAP-deleted, at least 10 µM. The “SAM/MTA Ratio” value on PRMT5 [2] (setting [4]) was “A (a Ki ratio greater than or equal to 10 fold between the Ki in the presence of SAM and the Ki in the presence of MTA)”. Moreover, in the assay with HAP1 MTAP-deleted, the “MTAP Intact/Deleted Ratio” value was “C* (an IC50 ratio of less than 3 fold between the IC50 in the HAP1 MTAP-intact cell line and the HAP1 MTAP-deleted cell line)”.

For the compound `CC(=O)N1CCC(Nc2cc(C(=O)NC[C@H](O)CN3CCc4cc(OCc5cnco5)ccc4C3)ccn2)CC1` [Compound 471, 2-[(1-acetyl-4-piperidyl)amino]-N-[(2S)-2-hydroxy-3-[6-(oxazol-5-ylmethoxy)-3,4-dihydro-1H-isoquinolin-2-yl]propyl]pyridine-4-carboxamide], the IC50 lay in the range of 0.05 to 0.5 µM at PRMT5 [1]; 0.05 to 0.5 µM on PRMT5 [2]; 1 to 10 µM in the assay on HAP1 MTAP-intact; 0.5 to 5 µM at PRMT5 [3]; 1 to 10 µM with HAP1 MTAP-deleted. In addition, on PRMT5 [2] (setting [5]), the “SAM/MTA Ratio” value is “A (a Ki ratio greater than or equal to 10 fold between the Ki in the presence of SAM and the Ki in the presence of MTA)”. In the assay on HAP1 MTAP-deleted, the “MTAP Intact/Deleted Ratio” value is “B* (an IC50 ratio greater than or equal to 3 fold but lower than 10 fold between the IC50 in the HAP1 MTAP-intact cell line and the HAP1 MTAP-deleted cell line)”.

In the case of `O=C(NC[C@H](O)CN1CCc2c(ccc(OCc3cnco3)c2Cl)C1)c1ccc(OC2CCOCC2)cc1` [Compound 482, (S)—N-(3-(5-chloro-6-(oxazol-5-ylmethoxy)-3,4-dihydroisoquinolin-2(1H)-yl)-2-hydroxypropyl)-4-((tetrahydro-2H-pyran-4-yl)oxy)benzamide], the 50% inhibitory concentration (IC50) is 0.5 to 5 µM on PRMT5 [1]; 0.5 to 5 µM at PRMT5 [2]; at least 10 µM in the assay on HAP1 MTAP-intact; at least 5 µM at PRMT5 [3]; at least 10 µM in the assay on HAP1 MTAP-deleted. On PRMT5 [2] (setting [5]), the “SAM/MTA Ratio” value is “A (a Ki ratio greater than or equal to 10 fold between the Ki in the presence of SAM and the Ki in the presence of MTA)”. For the same compound, the “MTAP Intact/Deleted Ratio” value in the assay with HAP1 MTAP-deleted was “C* (an IC50 ratio of less than 3 fold between the IC50 in the HAP1 MTAP-intact cell line and the HAP1 MTAP-deleted cell line)”.

Take `COCCN(C)c1cc(C(=O)NC[C@H](O)CN2CCc3cc(OCc4ocnc4C)ccc3C2)cc(NC2CCC2)n1` [Compound 554]: the IC50 was 0.05 to 0.5 µM at PRMT5 [1]; 0.05 to 0.5 µM at PRMT5 [2]; under 1 µM with HAP1 MTAP-intact; 0.5 to 5 µM at PRMT5 [3]; under 1 µM with HAP1 MTAP-deleted. In addition, on PRMT5 [2] (setting [5]), the “SAM/MTA Ratio” value was “A (a Ki ratio greater than or equal to 10 fold between the Ki in the presence of SAM and the Ki in the presence of MTA)”. The “MTAP Intact/Deleted Ratio” value with HAP1 MTAP-deleted was “C* (an IC50 ratio of less than 3 fold between the IC50 in the HAP1 MTAP-intact cell line and the HAP1 MTAP-deleted cell line)”.

Turning to `CCC(=O)N1CCC(Nc2cc(C(=O)NC[C@H](O)CN3CCc4cc(OCc5cnco5)ccc4C3)ccn2)CC1` [Compound 460, N-[(2S)-2-hydroxy-3-[6-(oxazol-5-ylmethoxy)-3,4-dihydro-1H-isoquinolin-2-yl]propyl]-2-[(1-propanoyl-4-piperidyl)amino]pyridine-4-carboxamide], the IC50 at PRMT5 [1] was 0.05 to 0.5 µM; at PRMT5 [2], 0.05 to 0.5 µM; with HAP1 MTAP-intact, 1 to 10 µM; against PRMT5 [3], 0.5 to 5 µM; with HAP1 MTAP-deleted it was under 1 µM. For the same compound, at PRMT5 [2] (setting [5]), the “SAM/MTA Ratio” value is “A (a Ki ratio greater than or equal to 10 fold between the Ki in the presence of SAM and the Ki in the presence of MTA)”. In addition, the “MTAP Intact/Deleted Ratio” value in the assay with HAP1 MTAP-deleted was “B* (an IC50 ratio greater than or equal to 3 fold but lower than 10 fold between the IC50 in the HAP1 MTAP-intact cell line and the HAP1 MTAP-deleted cell line)”.

Consider `Cc1ncoc1COc1ccc2c(c1)CCN(C[C@@H](O)CNC(=O)c1cc(NC3COC3)nc(N3CCN(C(=O)C(C)C)CC3)n1)C2` [Compound 454, N-[(2S)-2-hydroxy-3-{6-[(4-methyl-1,3-oxazol-5-yl)methoxy]-1,2,3,4-tetrahydroisoquinolin-2-yl}propyl]-2-[4-(2-methylpropanoyl)piperazin-1-yl]-6-[(oxetan-3-yl)amino]pyrimidine-4-carboxamide], for which the IC50 at PRMT5 [1] is 0.05 to 0.5 µM; on PRMT5 [2] it was 0.05 to 0.5 µM; with HAP1 MTAP-intact, 1 to 10 µM; at PRMT5 [3] it was 0.5 to 5 µM; in the assay with HAP1 MTAP-deleted, under 1 µM. Besides, the “SAM/MTA Ratio” value at PRMT5 [2] (setting [5]) was “A (a Ki ratio greater than or equal to 10 fold between the Ki in the presence of SAM and the Ki in the presence of MTA)”. Moreover, the “MTAP Intact/Deleted Ratio” value in the assay on HAP1 MTAP-deleted was “B* (an IC50 ratio greater than or equal to 3 fold but lower than 10 fold between the IC50 in the HAP1 MTAP-intact cell line and the HAP1 MTAP-deleted cell line)”.

In the case of `Cc1ncoc1COc1ccc2c(c1C)CCN(C[C@@H](O)CNC(=O)c1cc(CC(C)C)nc(NC3CCC3)c1)C2` [Compound 504, 2-(cyclobutylamino)-N-[(2S)-2-hydroxy-3-{5-methyl-6-[(4-methyl-1,3-oxazol-5-yl)methoxy]-1,2,3,4-trihydroisoquinolin-2-yl}propyl]-6-(2-methylpropyl)pyridine-4-carboxamide], the IC50 was 0.05 to 0.5 µM at PRMT5 [1]; 0.05 to 0.5 µM at PRMT5 [2]; at least 10 µM in the assay with HAP1 MTAP-intact; at least 5 µM against PRMT5 [3]; at least 10 µM in the assay with HAP1 MTAP-deleted. Also, on PRMT5 [2] (setting [5]), the “SAM/MTA Ratio” value is “A (a Ki ratio greater than or equal to 10 fold between the Ki in the presence of SAM and the Ki in the presence of MTA)”. Besides, in the assay with HAP1 MTAP-deleted, the “MTAP Intact/Deleted Ratio” value was “C* (an IC50 ratio of less than 3 fold between the IC50 in the HAP1 MTAP-intact cell line and the HAP1 MTAP-deleted cell line)”.

For orientation: IC50 means the midpoint of a concentration-inhibition curve.
